Experiments:
SGC-7901 = assay: cells; conditions: Homo sapiens, SGC-7901, 72 h
Description: Antiproliferative activity against human SGC-7901 cells incubated for 72 hrs by MTT assay

NCI-H1650 [1] = assay: Induction of apoptosis in human NCI-H1650 cells assessed as viable cells measured at 2 uM for 24 hrs by annexin V-PI staining based flow cytometric analysis (reference value: 87.4%); type: functional; conditions: read-out: Activity
NCI-H1650 [2] = assay: Induction of cell cycle arrest in human NCI-H1650 cells assessed as accumulation of cells in G2 phase measured at 2 uM for 24 hrs by annexin V-PI staining based flow cytometric analysis (reference value: 18.00%); type: functional
NCI-H1650 [3] = assay: Induction of apoptosis in human NCI-H1650 cells assessed as early apoptotic cells measured at 4 uM for 24 hrs by annexin V-PI staining based flow cytometric analysis (reference value: 11.2%); type: functional
NCI-H1650 [4] = assay: Induction of apoptosis in human NCI-H1650 cells assessed as viable cells measured at 4 uM for 24 hrs by annexin V-PI staining based flow cytometric analysis (reference value: 87.4%); type: functional; conditions: read-out: Activity
[5] = Toxicity in mouse xenografted with human NCI-H1650 cells assessed as increase in survival rate at 10 to 20 mg/kg, po treated for 21 days measured every 10 days for 50 days; type: organism-based; conditions: in vivo, 504 h, dose 10-20 mg/kg, time 21 day
[6] = Toxicity in mouse xenografted with human NCI-H1650 cells assessed as change in body weight at 10 to 20 mg/kg, po measured every 4 days for 21 days; type: organism-based; conditions: in vivo, 504 h, dose 10-20 mg/kg, time 21 day
NCI-H1650 [7] = assay: Induction of cell cycle arrest in human NCI-H1650 cells assessed as accumulation of cells in S phase measured at 4 uM for 24 hrs by annexin V-PI staining based flow cytometric analysis (reference value: 29.97%); type: functional
NCI-H1650 [8] = assay: Induction of cell cycle arrest in human NCI-H1650 cells assessed as accumulation of cells in S phase measured at 2 uM for 24 hrs by annexin V-PI staining based flow cytometric analysis (reference value: 29.97%); type: functional
NCI-H1650 [9] = assay: Induction of apoptosis in human NCI-H1650 cells assessed as late apoptotic cells measured at 4 uM for 24 hrs by annexin V-PI staining based flow cytometric analysis (reference value: 1.46%); type: functional
NCI-H1650 [10] = assay: Antitumor activity against human NCI-H1650 cells xenografted in mouse assessed as reduction of tumor weight at 20 mg/kg, po for 21 days relative to control; type: ADME, organism-based; set-up: scale not given: the % may be the effect or the level left; conditions: in vivo, 504 h, time 21 day
[11] = target: T1, MAO-B (amine oxidase [flavin-containing] B) (Homo sapiens, UniProt P27338); assay: Inhibition of recombinant MAO-B (unknown origin) using luciferin derivative as substrate measured at 1 uM for 60 mins by plate reader analysis relative to control; conditions: probe luciferin derivative
T1 sequence (P27338 whole entry): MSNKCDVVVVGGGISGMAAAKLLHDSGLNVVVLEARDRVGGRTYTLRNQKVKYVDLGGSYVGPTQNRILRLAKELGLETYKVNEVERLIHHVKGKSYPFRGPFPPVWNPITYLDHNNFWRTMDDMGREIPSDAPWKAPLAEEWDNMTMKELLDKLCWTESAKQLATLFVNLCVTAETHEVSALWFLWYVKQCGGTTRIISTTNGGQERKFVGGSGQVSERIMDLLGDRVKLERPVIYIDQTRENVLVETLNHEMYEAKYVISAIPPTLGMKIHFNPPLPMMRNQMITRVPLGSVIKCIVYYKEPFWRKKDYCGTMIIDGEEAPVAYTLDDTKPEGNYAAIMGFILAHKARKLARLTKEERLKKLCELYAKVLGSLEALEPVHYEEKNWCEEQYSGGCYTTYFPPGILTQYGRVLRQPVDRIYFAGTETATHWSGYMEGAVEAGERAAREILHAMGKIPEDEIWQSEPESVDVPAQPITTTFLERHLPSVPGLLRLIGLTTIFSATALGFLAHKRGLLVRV

NCI-H1650 [12] = assay: cells; conditions: Homo sapiens, NCI-H1650, 72 h
Description: Antiproliferative activity against human NCI-H1650 cells incubated for 72 hrs by MTT assay

NCI-H1650 [13] = assay: Induction of apoptosis in human NCI-H1650 cells assessed as viable cells measured at 1 uM for 24 hrs by annexin V-PI staining based flow cytometric analysis (reference value: 87.4%); type: functional; conditions: read-out: Activity
NCI-H1650 [14] = assay: Induction of cell cycle arrest in human NCI-H1650 cells assessed as accumulation of cells in G2 phase measured at 1 uM for 24 hrs by annexin V-PI staining based flow cytometric analysis (reference value: 18.00%); type: functional
ECa-109 cell line = assay: cells; conditions: Homo sapiens, ECa-109, 72 h
Description: Antiproliferative activity against human EC109 cells incubated for 72 hrs by MTT assay

NCI-H1650 [15] = assay: Induction of apoptosis in human NCI-H1650 cells assessed as apoptotic cells measured at 2 uM for 24 hrs by annexin V-PI staining based flow cytometric analysis (reference value: 12.7%); type: functional
MGC-803 [16] = assay: cells; conditions: Homo sapiens, MGC-803, 72 h
Description: Antiproliferative activity against human MGC-803 LSD knock out cells incubated for 72 hrs by MTT assay

NCI-H1650 [17] = assay: Induction of apoptosis in human NCI-H1650 cells assessed as apoptotic cells measured at 1 uM for 24 hrs by annexin V-PI staining based flow cytometric analysis (reference value: 12.7%); type: functional
NCI-H1650 [18] = assay: Induction of cell cycle arrest in human NCI-H1650 cells assessed as accumulation of cells in S phase measured at 1 uM for 24 hrs by annexin V-PI staining based flow cytometric analysis (reference value: 29.97%); type: functional
[19] = target: T2, MAO-A (amine oxidase [flavin-containing] A) (Homo sapiens, UniProt P21397); assay: Inhibition of recombinant MAO-A (unknown origin) using luciferin derivative as substrate measured at 1 uM for 60 mins by plate reader analysis relative to control; conditions: probe luciferin derivative
T2 sequence (P21397 whole entry): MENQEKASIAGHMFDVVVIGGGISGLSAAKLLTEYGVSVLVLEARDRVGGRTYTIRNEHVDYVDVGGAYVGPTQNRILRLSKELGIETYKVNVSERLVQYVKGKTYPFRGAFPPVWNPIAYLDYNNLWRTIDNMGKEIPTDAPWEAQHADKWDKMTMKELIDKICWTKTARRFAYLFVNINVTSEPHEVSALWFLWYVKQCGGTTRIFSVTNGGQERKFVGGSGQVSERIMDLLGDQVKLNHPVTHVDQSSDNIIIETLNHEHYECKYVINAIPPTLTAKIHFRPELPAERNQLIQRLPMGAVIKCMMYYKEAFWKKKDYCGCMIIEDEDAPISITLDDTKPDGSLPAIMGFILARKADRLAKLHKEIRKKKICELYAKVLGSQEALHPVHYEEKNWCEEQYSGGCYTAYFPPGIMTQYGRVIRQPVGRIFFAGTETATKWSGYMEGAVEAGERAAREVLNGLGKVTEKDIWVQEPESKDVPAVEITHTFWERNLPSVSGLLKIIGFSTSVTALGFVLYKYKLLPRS

NCI-H1650 [20] = assay: Induction of apoptosis in human NCI-H1650 cells assessed as late apoptotic cells measured at 2 uM for 24 hrs by annexin V-PI staining based flow cytometric analysis (reference value: 1.46%); type: functional
NCI-H1650 [21] = assay: Induction of apoptosis in human NCI-H1650 cells assessed as necrotic cells measured at 1 uM for 24 hrs by annexin V-PI staining based flow cytometric analysis (reference value: 0.008%); type: functional
NCI-H1650 [22] = assay: Induction of apoptosis in human NCI-H1650 cells assessed as early apoptotic cells measured at 1 uM for 24 hrs by annexin V-PI staining based flow cytometric analysis (reference value: 11.2%); type: functional
NCI-H1650 [23] = assay: Induction of cell cycle arrest in human NCI-H1650 cells assessed as accumulation of cells in G1 phase measured at 2 uM for 24 hrs by annexin V-PI staining based flow cytometric analysis (reference value: 52.04%); type: functional
A549 = assay: cells; conditions: Homo sapiens, A549, 72 h
Description: Antiproliferative activity against human A549 cells incubated for 72 hrs by MTT assay

MGC-803 [24] = assay: cells; conditions: Homo sapiens, MGC-803, 72 h; remark: listed apart in the source
Description: Antiproliferative activity against human MGC-803 cells incubated for 72 hrs by MTT assay

NCI-H1650 [25] = assay: Induction of apoptosis in human NCI-H1650 cells assessed as necrotic cells measured at 4 uM for 24 hrs by annexin V-PI staining based flow cytometric analysis (reference value: 0.008%); type: functional
NCI-H1650 [26] = assay: Induction of cell cycle arrest in human NCI-H1650 cells assessed as accumulation of cells in G1 phase measured at 1 uM for 24 hrs by annexin V-PI staining based flow cytometric analysis (reference value: 52.04%); type: functional
MCF7 = assay: cells; conditions: Homo sapiens, MCF7, 72 h
Description: Antiproliferative activity against human MCF7 cells incubated for 72 hrs by MTT assay

NCI-H1650 [27] = assay: Induction of cell cycle arrest in human NCI-H1650 cells assessed as accumulation of cells in G2 phase measured at 4 uM for 24 hrs by annexin V-PI staining based flow cytometric analysis (reference value: 18.00%); type: functional
NCI-H1650 [28] = assay: Induction of apoptosis in human NCI-H1650 cells assessed as early apoptotic cells measured at 2 uM for 24 hrs by annexin V-PI staining based flow cytometric analysis (reference value: 11.2%); type: functional
GES1 = assay: cells; conditions: Homo sapiens, GES1, 72 h
Description: Antiproliferative activity against human GES1 cells incubated for 72 hrs by MTT assay

NCI-H1650 [29] = assay: Induction of cell cycle arrest in human NCI-H1650 cells assessed as accumulation of cells in G1 phase measured at 4 uM for 24 hrs by annexin V-PI staining based flow cytometric analysis (reference value: 52.04%); type: functional
NCI-H1650 [30] = assay: Induction of apoptosis in human NCI-H1650 cells assessed as necrotic cells measured at 2 uM for 24 hrs by annexin V-PI staining based flow cytometric analysis (reference value: 0.008%); type: functional
NCI-H1650 [31] = assay: Induction of apoptosis in human NCI-H1650 cells assessed as apoptotic cells measured at 4 uM for 24 hrs by annexin V-PI staining based flow cytometric analysis (reference value: 12.7%); type: functional
NCI-H460 = assay: cells; conditions: Homo sapiens, NCI-H460, 72 h
Description: Antiproliferative activity against human NCI-H460 cells incubated for 72 hrs by MTT assay

NCI-H1650 [32] = assay: Induction of apoptosis in human NCI-H1650 cells assessed as late apoptotic cells measured at 1 uM for 24 hrs by annexin V-PI staining based flow cytometric analysis (reference value: 1.46%); type: functional
NCI-H1650 [33] = assay: Antitumor activity against human NCI-H1650 cells xenografted in mouse assessed as reduction of tumor weight at 10 mg/kg, po for 21 days relative to control; type: ADME, organism-based; set-up: scale not given: the % may be the effect or the level left; conditions: in vivo, 504 h, time 21 day
PC-3 = assay: cells; conditions: Homo sapiens, PC-3, 72 h
Description: Antiproliferative activity against human PC-3 cells incubated for 72 hrs by MTT assay

With CCCSc1nc(Oc2c(OC)cc(CN[C@@H]3C[C@H]3c3ccccc3)cc2OC)c2nnn(Cc3cccc(Cl)c3)c2n1 as the compound, how does the IC50 (SGC-7901) read?
Its IC50 is 9.5 µM.

And the viability at 2 µM (NCI-H1650 [1])?
Its viability at 2 µM is 55.4%.

And the Activity (NCI-H1650 [2])?
Its Activity is 10.6%.

What about the Activity (NCI-H1650 [3]) of the same compound?
The Activity was 38.4%.

And the viability at 4 µM (NCI-H1650 [4])?
Its viability at 4 µM is 54.3%.

And the Activity [5]?
Its Activity is “Non-Toxic”.

And the Activity [6]?
The Activity was “Non-Toxic”.

And the Activity (NCI-H1650 [7])?
The Activity was 43.26%.

And the Activity (NCI-H1650 [8])?
Its Activity is 39.81%.

And the Activity (NCI-H1650 [9])?
The Activity was 7.32%.

And the Activity (NCI-H1650 [10])?
The Activity was 64%.

And the inhibition at 1 h, 1 µM [11]?
The inhibition at 1 h, 1 µM was 52%.

What about the IC50 (NCI-H1650 [12]) of the same compound?
The IC50 was 4.3 µM.

And the viability at 1 µM (NCI-H1650 [13])?
Its viability at 1 µM is 56.1%.

What about the Activity (NCI-H1650 [14]) of the same compound?
The Activity was 15.24%.

What about the IC50 (ECa-109 cell line) of the same compound?
Its IC50 is 15.2 µM.

And the Activity (NCI-H1650 [15])?
The Activity was 44.5%.

And the IC50 (MGC-803 [16])?
The IC50 was greater than 20 µM.

And the Activity (NCI-H1650 [17])?
The Activity was 43.9%.

And the Activity (NCI-H1650 [18])?
The Activity was 33.32%.

And the inhibition at 1 h, 1 µM [19]?
The inhibition at 1 h, 1 µM was 25.5%.

What about the Activity (NCI-H1650 [20]) of the same compound?
The Activity was 6.02%.

And the Activity (NCI-H1650 [21])?
The Activity was 0.022%.

And the Activity (NCI-H1650 [22])?
Its Activity is 40.3%.

What about the Activity (NCI-H1650 [23]) of the same compound?
Its Activity is 49.59%.

What about the IC50 (A549) of the same compound?
The IC50 was 7.9 µM.

And the IC50 (MGC-803 [24])?
Its IC50 is 5.1 µM.

What about the Activity (NCI-H1650 [25]) of the same compound?
Its Activity is 0.041%.

What about the Activity (NCI-H1650 [26]) of the same compound?
Its Activity is 51.44%.

And the IC50 (MCF7)?
The IC50 was 13.4 µM.

What about the Activity (NCI-H1650 [27]) of the same compound?
The Activity was 7.76%.

And the Activity (NCI-H1650 [28])?
Its Activity is 38.5%.

And the IC50 (GES1)?
Its IC50 is greater than 20 µM.

And the Activity (NCI-H1650 [29])?
The Activity was 48.98%.

What about the Activity (NCI-H1650 [30]) of the same compound?
Its Activity is 0.138%.

What about the Activity (NCI-H1650 [31]) of the same compound?
The Activity was 45.7%.

And the IC50 (NCI-H460)?
The IC50 was 13.6 µM.

What about the Activity (NCI-H1650 [32]) of the same compound?
Its Activity is 3.6%.

What about the Activity (NCI-H1650 [33]) of the same compound?
Its Activity is 41.5%.

What about the IC50 (PC-3) of the same compound?
The IC50 was 7.5 µM.

Source: ChEMBL document CHEMBL5360571, “Design, synthesis and in vitro/in vivo anticancer activity of tranylcypromine-based triazolopyrimidine analogs as novel LSD1 inhibitors” (Eur J Med Chem, 2023)
